US20130324503A1, “Method of identifying and treating a person having a predisposition to or afflicted with Parkinson disease” (Health Research Inc., priority 2010, published 2013)
Like-named read-outs stand apart in the source and are kept apart here.

Columns and labels:
[1] = system: D. melanogaster w^1118 females
Protocol: (§1) All experiments were conducted with D. melanogaster w^1118 females (Bloomington Drosophila Stock Center) kept at consistent conditions at 25° C., 55% humidity, and ambient light. […] Flies were transferred to new vials every other day. […] These solutions were prepared fresh before each batch of media preparation and were added to warmed, liquefied standard fly food (prepared with agar, cornmeal, sucrose and yeast) and mixed thoroughly prior to pouring into vials. Food was prepared fresh at least monthly.
Flies were followed according to the same protocol, counting dead flies daily until all were dead. Survival data were plotted using Kaplan Meier survival analysis^17, mean and median survival times were calculated, and the differences between the survival curves were tested using log rank statistics in SPSS.

[2] = system: D. melanogaster w^1118 females; settings: in vivo
Protocol: as §1

[3] = in vivo; cited from earlier work
[4] = system: CG14691; format: in vivo, D. melanogaster; settings: 5 mM paraquat for six days, compared to untreated flies
Protocol: as §1

[5] = 5 mM paraquat, nicotine 0 mg/ml

Row | SMILES | Nicotine restored survival of paraquat-treated flies ([1]; in vivo) [%] | effect on survival ([1]; in vivo) | improvement of survival of paraquat-treated flies ([1]; in vivo) | effect on survival [2] | Oral bioavailability [3] | shortening of lifespan ([1]; 5 mM paraquat vs untreated flies) [%] | Mean survival Days ± SE [1, 5] [days] | Median survival Days ± SE [1, 5] [days] | Reduction of median survival by paraquat ([1]; in vivo) | rise in CG14691 expression [4] [%]
1 | CN1CCC[C@H]1c1cccnc1 [nicotine, 1-methyl-2-(3-pyridyl)pyrrolidone] | ≤ 25 | beneficial effect | up to 25% | did not have a notable effect on survival | about 30% |  |  |  |  | 
2 | C[n+]1ccc(-c2cc[n+](C)cc2)cc1 [paraquat, Methyl viologen dichloride hydrate] |  |  |  |  |  | 63 | 14.0 ± 0.4 | 16 ± 0.5 | Paraquat reduced median survival by 63% | 8
